Biological target: Beta-adrenergic receptor (Mus musculus, UniProt P34971+P18762+P25962)
Assay: Effective concentration against 125I]iodocyanopindolol(ICYP) binding to beta adrenergic receptor was determined
Assay type: protein assay

Structure (SMILES)	EC50 [µM]
NCCCNCC(O)c1ccc(O)c(O)c1 (configuration not stated)	160
CC(CCCCNC(=O)OCc1ccccc1)NCC(O)c1ccc(O)c(O)c1 (configuration not stated)	0.049

From ChEMBL document CHEMBL1122997, “Conjugates of catecholamines. 5. Synthesis and beta-adrenergic activity of N-(aminoalkyl)norepinephrine derivatives” (J Med Chem, 1985)
